# Assay results: patent US20200016159A1, “N3-CYCLICALLY SUBSTITUTED THIENOURACILS AND USE THEREOF” (Bayer Aktiengesellschaft, priority 2016, published 2020)
# pIC50: −log10 of the molar value.
# Molecular target: T1, human adenosine A2b receptor (Homo sapiens, UniProt P29275)
# T1 sequence (P29275 1-332): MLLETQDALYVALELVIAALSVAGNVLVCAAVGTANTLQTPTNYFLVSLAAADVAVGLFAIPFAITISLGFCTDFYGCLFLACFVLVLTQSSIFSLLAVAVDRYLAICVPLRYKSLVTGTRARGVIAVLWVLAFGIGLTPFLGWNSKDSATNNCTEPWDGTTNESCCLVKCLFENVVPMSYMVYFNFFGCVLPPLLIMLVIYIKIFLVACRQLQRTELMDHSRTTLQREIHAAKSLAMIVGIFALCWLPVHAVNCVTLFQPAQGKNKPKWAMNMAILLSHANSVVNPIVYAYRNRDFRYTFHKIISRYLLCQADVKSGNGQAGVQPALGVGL
# Assay: Cellular in vitro reporter gene test for A2b receptor activity (antagonism of NECA)
# Format: cell-based
# Set-up: expressed in transfected cells; host or cells: CHO-K1 (Chinese hamster ovary) with CRE-luciferase reporter
# Details: recombinant CHO-K1 cells, CRE-luciferase reporter, co-incubation with EC50 concentration of NECA, 3 hours
# Procedure, shortened: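 Antagonism measured as block of NECA-induced, cAMP/CRE-dependent luciferase expression in recombinant A2b CHO-K1 cells. NECA used at the EC50 set in a pre-experiment on each test day; luminescence detected after 3 h. Reported as IC50, partly averaged and rounded to two significant figures.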
row,Compound,pIC50
1,"Cc1c(Cn2nc[nH]c2=O)sc2c1c(=O)n(C1CC1)c(=O)n2CC1CC1(F)F (single isomer, unassigned; enantiomer 1) [Example 21, 3-Cyclopropyl-1-[(2,2-difluorocyclopropyl)methyl]-5-methyl-6-[(5-oxo-4,5-dihydro-1H-1,2,4-triazol-1-yl)methyl]thieno[2,3-d]pyrimidine-2,4(1H,3H)-dione (enantiomer 1)]",7.28
2,"Cc1c(Cn2nc[nH]c2=O)sc2c1c(=O)n(C1CC1)c(=O)n2CC1CCC1(F)F (single isomer, unassigned; enantiomer 2) [Example 203, 3-Cyclopropyl-1-[(2,2-difluorocyclobutyl)methyl]-5-methyl-6-[(5-oxo-4,5-dihydro-1H-1,2,4-triazol-1-yl)methyl]thieno[2,3-d]pyrimidine-2,4(1H,3H)-dione (enantiomer 2)]",6.80
3,"Cc1c(Cn2nc[nH]c2=O)sc2c1c(=O)n(C1CC1)c(=O)n2C [Example 2, 3-Cyclopropyl-1,5-dimethyl-6-[(5-oxo-4,5-dihydro-1H-1,2,4-triazol-1-yl)methyl]thieno[2,3-d]pyrimidine-2,4(1H,3H)-dione]",7.09
4,"CCCCn1c(=O)n(C2CC2)c(=O)c2c(C)c(Cn3nc[nH]c3=O)sc21 [Example 4, 1-Butyl-3-cyclopropyl-5-methyl-6-[(5-oxo-4,5-dihydro-H-1,2,4-triazol-1-yl)methyl]thieno[2,3-d]pyrimidine-2,4(1H,3H)-dione]",7.47
5,"Cc1c(CN2CCNC2=S)sc2c1c(=O)n(C1CC1)c(=O)n2CCCF [Example 6, 3-Cyclopropyl-1-(3-fluoropropyl)-5-methyl-6-[(2-thioxoimidazolidin-1-yl)methyl]thieno[2,3-d]pyrimidine-2,4(1H,3H)-dione]",7.92
6,"Cc1c(CN2CCNC2=NC#N)sc2c1c(=O)n(C1CC1)c(=O)n2CCCF [Example 7, [1-{[3-Cyclopropyl-1-(3-fluoropropyl)-5-methyl-2,4-dioxo-1,2,3,4-tetrahydrothieno[2,3-d]pyrimidin-6-yl]methyl}imidazolidin-2-ylidene]cyanamide]",7.74
7,"Cc1c(CN2CCNC2=O)sc2c1c(=O)n(C1CC1)c(=O)n2CCC(F)(F)F [Example 9, 3-Cyclopropyl-5-methyl-6-[(2-oxoimidazolidin-1-yl)methyl]-1-(3,3,3-trifluoropropyl)thieno[2,3-d]pyrimidine-2,4(1H,3H)-dione]",8.82
8,"Cc1c(CN2CCNC2=S)sc2c1c(=O)n(C1CC1)c(=O)n2CCC(F)(F)F [Example 10, 3-Cyclopropyl-5-methyl-6-[(2-thioxoimidazolidin-1-yl)methyl]-1-(3,3,3-trifluoropropyl)thieno[2,3-d]pyrimidine-2,4(1H,3H)-dione]",8.82
9,"COC(=O)N=C1NCCN1Cc1sc2c(c1C)c(=O)n(C1CC1)c(=O)n2CCC(F)(F)F [Example 12, Methyl [1-{[3-cyclopropyl-5-methyl-2,4-dioxo-1-(3,3,3-trifluoropropyl)-1,2,3,4-tetrahydrothieno[2,3-d]pyrimidin-6-yl]methyl}imidazolidin-2-ylidene]carbamate]",8.38
10,"[2H]C([2H])(c1sc2c(c1C)c(=O)n(C1CC1)c(=O)n2CCC(F)(F)F)N1CCNC1=O [Example 16, 3-Cyclopropyl-5-methyl-6-[(2-oxoimidazolidin-1-yl)dideuteromethyl]-1-(3,3,3-trifluoropropyl)thieno[2,3-d]pyrimidine-2,4(1H,3H)-dione]",8.52
11,"Cc1c(CN2CCNC2=O)sc2c1c(=O)n(C1CC1)c(=O)n2CC1CCC1 [Example 17, 1-(Cyclobutylmethyl)-3-cyclopropyl-5-methyl-6-[(2-oxoimidazolidin-1-yl)methyl]thieno[2,3-d]pyrimidine-2,4(1H,3H)-dione]",8.39
12,"Cc1c(Cn2nc[nH]c2=O)sc2c1c(=O)n(C1CC1)c(=O)n2CC#N [Example 23, {3-Cyclopropyl-5-methyl-2,4-dioxo-6-[(5-oxo-4,5-dihydro-1H-1,2,4-triazol-1-yl)methyl]-3,4-dihydrothieno[2,3-d]pyrimidin-1 (2H)-yl}acetonitrile]",6.89
13,"COCCn1c(=O)n(C2CC2)c(=O)c2c(C)c(CN3CCNC3=NC#N)sc21 [Example 25, [1-{[3-Cyclopropyl-1-(2-methoxyethyl)-5-methyl-2,4-dioxo-1,2,3,4-tetrahydrothieno[2,3-d]pyrimidin-6-yl]methyl}imidazolidin-2-ylidene]cyanamide]",7.92
14,"COCCn1c(=O)n(C2CC2)c(=O)c2c(C)c(CN3CCNC(=O)C3=O)sc21 [Example 27, 3-Cyclopropyl-6-[(2,3-dioxopiperazin-1-yl)methyl]-1-(2-methoxyethyl)-5-methylthieno[2,3-d]pyrimidine-2,4(1H,3H)-dione]",7.40
15,"COCCn1c(=O)n(C2CC2)c(=O)c2c(C)c(Cn3nc[nH]c3=O)sc21 [Example 29, 3-Cyclopropyl-1-(2-methoxyethyl)-5-methyl-6-[(5-oxo-4,5-dihydro-1H-1,2,4-triazol-1-yl)methyl]thieno[2,3-d]pyrimidine-2,4(1H,3H)-dione]",7.24

# Other lines, results leading:
row,pIC50,Compound
1,7.36,"COCCn1c(=O)n(C2CC2OC)c(=O)c2c(C)c(Cn3nc[nH]c3=O)sc21 (single isomer, unassigned) [Example 311, 3-(2-Methoxycyclopropyl)-1-(2-methoxyethyl)-5-methyl-6-[(5-oxo-4,5-dihydro-H-1,2,4-triazol-1-yl)methyl]thieno[2,3-d]pyrimidine-2,4(1H,3H)-dione]"
2,6.85,"Cc1c(Cn2nc[nH]c2=O)sc2c1c(=O)n(C1CC1)c(=O)n2CC1CCC1(F)F (single isomer, unassigned; enantiomer 1) [Example 202, 3-Cyclopropyl-1-[(2,2-difluorocyclobutyl)methyl]-5-methyl-6-[(5-oxo-4,5-dihydro-1H-1,2,4-triazol-1-yl)methyl]thieno[2,3-d]pyrimidine-2,4(1H,3H)-dione (enantiomer 1)]"
3,6.55,"Cc1c(Cn2nc[nH]c2=O)sc2c1c(=O)n(C1CC1)c(=O)n2CC1CC1(F)F (single isomer, unassigned; enantiomer 2) [Example 22, 3-Cyclopropyl-1-[(2,2-difluorocyclopropyl)methyl]-5-methyl-6-[(5-oxo-4,5-dihydro-1H-1,2,4-triazol-1-yl)methyl]thieno[2,3-d]pyrimidine-2,4(1H,3H)-dione (enantiomer 2)]"
4,7.70,"Cc1c(CN2CCNC2=O)sc2c1c(=O)n(C1CC1)c(=O)n2C [Example 1, 3-Cyclopropyl-1,5-dimethyl-6-[(2-oxoimidazolidin-1-yl)methyl]thieno[2,3-d]pyrimidine-2,4(1H,3H)-dione]"
5,8.16,"CCCCn1c(=O)n(C2CC2)c(=O)c2c(C)c(CN3CCNC3=O)sc21 [Example 3, 1-Butyl-3-cyclopropyl-5-methyl-6-[(2-oxoimidazolidin-1-yl)methyl]thieno[2,3-d]pyrimidine-2,4(1H,3H)-dione]"
6,7.36,"Cc1c(CN2CCNC(=O)C2=O)sc2c1c(=O)n(C1CC1)c(=O)n2CCCF [Example 8, 3-Cyclopropyl-6-[(2,3-dioxopiperazin-1-yl)methyl]-1-(3-fluoropropyl)-5-methylthieno[2,3-d]pyrimidine-2,4(1H,3H)-dione]"
7,8.48,"Cc1c(CN2CCNC2=NC#N)sc2c1c(=O)n(C1CC1)c(=O)n2CCC(F)(F)F [Example 11, [1-{[3-Cyclopropyl-5-methyl-2,4-dioxo-1-(3,3,3-trifluoropropyl)-1,2,3,4-tetrahydrothieno[2,3-d]pyrimidin-6-yl]methyl}imidazolidin-2-ylidene]cyanamide]"
8,8.40,"Cc1c(CN2CCNC(=O)C2=O)sc2c1c(=O)n(C1CC1)c(=O)n2CCC(F)(F)F [Example 13, 3-Cyclopropyl-6-[(2,3-dioxopiperazin-1-yl)methyl]-5-methyl-1-(3,3,3-trifluoropropyl)thieno[2,3-d]pyrimidine-2,4(1H,3H)-dione]"
9,8.43,"Cc1c(Cn2cc[nH]c2=O)sc2c1c(=O)n(C1CC1)c(=O)n2CCC(F)(F)F [Example 14, 3-Cyclopropyl-5-methyl-6-[(2-oxo-2,3-dihydro-1H-imidazol-1-yl)methyl]-1-(3,3,3-trifluoropropyl)thieno[2,3-d]pyrimidine-2,4(1H,3H)-dione]"
10,7.60,"Cc1c(Cn2nc[nH]c2=O)sc2c1c(=O)n(C1CC1)c(=O)n2CC1CCC1 [Example 18, 1-(Cyclobutylmethyl)-3-cyclopropyl-5-methyl-6-[(5-oxo-4,5-dihydro-1H-1,2,4-triazol-1-yl)methyl]thieno[2,3-d]pyrimidine-2,4(1H,3H)-dione]"
11,7.54,"COCCn1c(=O)n(C2CC2)c(=O)c2c(C)c(CN3CCNC3=O)sc21 [Example 24, 3-Cyclopropyl-1-(2-methoxyethyl)-5-methyl-6-[(2-oxoimidazolidin-1-yl)methyl]thieno[2,3-d]pyrimidine-2,4(1H,3H)-dione]"
12,7.72,"COCCn1c(=O)n(C2CC2)c(=O)c2c(C)c(Cn3cc[nH]c3=O)sc21 [Example 28, 3-Cyclopropyl-1-(2-methoxyethyl)-5-methyl-6-[(2-oxo-2,3-dihydro-1H-imidazol-1-yl)methyl]thieno[2,3-d]pyrimidine-2,4(1H,3H)-dione]"
13,8.03,"[2H]C([2H])(c1sc2c(c1C)c(=O)n(C1CC1)c(=O)n2CCOC)N1CCNC1=O [Example 30, 3-Cyclopropyl-1-(2-methoxyethyl)-5-methyl-6-[(2-oxoimidazolidin-1-yl)dideuteromethyl]thieno[2,3-d]pyrimidine-2,4(1H,3H)-dione]"
